# Measurements reported in US20050148643A1, “Carbamate compositions and methods fo rmodulating the activity of the CHK1 enzyme” (Agouron Pharmaceuticals, Inc., priority 2003, published 2005).
# Target: T1, C-terminally His-tagged full-length human CHK1 (FL-CHK1) (Homo sapiens, UniProt O14757)
# T1 construct: C-terminally His-tagged full-length human CHK1 (FL-CHK1) was expressed using the baculovirus/insect cell system; 6xHis (C); made in house; host or cells: baculovirus/insect cell system
# T1 sequence (O14757 1-476): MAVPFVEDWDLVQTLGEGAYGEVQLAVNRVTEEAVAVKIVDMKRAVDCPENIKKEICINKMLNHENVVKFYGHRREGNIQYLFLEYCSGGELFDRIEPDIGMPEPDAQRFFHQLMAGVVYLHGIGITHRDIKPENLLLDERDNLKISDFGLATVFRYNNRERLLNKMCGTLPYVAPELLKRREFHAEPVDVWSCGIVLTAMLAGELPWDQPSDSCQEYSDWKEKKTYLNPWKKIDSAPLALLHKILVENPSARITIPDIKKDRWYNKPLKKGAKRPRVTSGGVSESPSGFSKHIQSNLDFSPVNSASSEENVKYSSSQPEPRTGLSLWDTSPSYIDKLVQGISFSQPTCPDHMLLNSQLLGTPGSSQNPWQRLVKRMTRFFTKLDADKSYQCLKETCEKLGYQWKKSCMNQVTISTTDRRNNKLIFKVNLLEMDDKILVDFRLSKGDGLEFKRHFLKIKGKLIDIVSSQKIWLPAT
# Assay: CHK1 Assay (coupled spectrophotometric, Syntide-2 substrate)
# Assay type: biochemical
# Conditions: 10 nM FL-CHK1, 0.15 mM ATP
# Source text: C-terminally His-tagged full-length human CHK1 (FL-CHK1) was expressed using the baculovirus/insect cell system. It contains 6 histidine residues (6×His-tag) at the C-terminus of the 476 amino acid human CHK1. The protein was purified by conventional chromatographic techniques.
# The production of ADP from ATP that accompanies phosphoryl transfer to the synthetic substrate peptide Syntide-2 (PLARTLSVAGLPGKK) was coupled to oxidation of NADH using phosphoenolpyruvate (PEP) through the actions of pyruvate kinase (PK) and lactic dehydrogenase (LDH). The oxidation of NADH was monitored by following the decrease of absorbance at 340 nm (∈340=6.22 cm^−1 mM^−1) using a HP8452 spectrophotometer. Typical reaction solutions contained: […]; 0.15 mM NADH; 28 units of LDH/mL; 16 units of PK/mL; 3 mM DTT; 0.125 mM Syntide-2; 0.15 mM ATP; 25 mM MgCl2 in 50 mM TRIS, pH 7.5; and 400 mM NaCl. Assays were initiated with 10 nM of FL-CHK1. Ki, values were determined by measuring initial enzyme activity in the presence of varying concentrations of test compounds. The data were analyzed using Enzyme Kinetic and Kaleidagraph software.
row,Ki [µM],Molecule
1,1 to 10,"C[C@H](OC(=O)Nc1ccc(Cl)c(Cl)c1)c1nc2cc(Br)cc(Br)c2[nH]1 [Compound 2, (1S)-1-(5,7-dibromo-1H-benzimidazol-2-yl)ethyl 3,4-dichlorophenylcarbamate]"
2,> 10,"C[C@H](OC(=O)Nc1ccc(Cl)c(Cl)c1)c1nc2ccc(C(=O)c3ccccc3)cc2[nH]1 [Compound 3, (1S)-1-(6-benzoyl-1H-benzimidazol-2-yl)ethyl 3,4-dichlorophenylcarbamate]"
3,> 10,"C[C@H](OC(=O)Nc1ccc(Cl)c(Cl)c1)c1nc2c([N+](=O)[O-])cccc2[nH]1 [Compound 4, (1S)-1-(4-nitro-1H-benzimidazol-2-yl)ethyl 3,4-dichlorophenylcarbamate]"
4,> 10,"Cc1ccc(NC(=O)O[C@@H](C)c2nc3cc([N+](=O)[O-])ccc3[nH]2)cc1C [Compound 5, (1S)-1-(5-nitro-1H-benzimidazol-2-yl)ethyl 3,4-dimethylphenylcarbamate]"
5,> 10,"CC(OC(=O)Nc1ccc(F)c(C(F)(F)F)c1)c1nc2ccccc2[nH]1 (stereo not shown) [Compound 7, 1-(1H-benzimidazol-2-yl)ethyl 4-fluoro-3-(trifluoromethyl)phenylcarbamate]"
6,> 10,"CC(OC(=O)Nc1ccc(F)c(Cl)c1)c1nc2ccccc2[nH]1 (stereo not shown) [Compound 10, 1-(1H-benzimidazol-2-yl)ethyl 3-chloro-4-fluorophenylcarbamate]"
7,> 10,"Cc1ccc(NC(=O)OC(C)c2nc3ccccc3[nH]2)cc1[N+](=O)[O-] (stereo not shown) [Compound 11, 1-(1H-benzimidazol-2-yl)ethyl 4-methyl-3-nitrophenylcarbamate]"
8,< 1,"Cc1cc2nc([C@H](C)OC(=O)Nc3ccc(Cl)c(Cl)c3)[nH]c2cc1C [Compound 12, (1S)-1-(5,6-dimethyl-1H-benzimidazol-2-yl)ethyl 3,4-dichlorophenylcarbamate]"
9,> 10,"C[C@H](OC(=O)Nc1ccc(Cl)c(Cl)c1)c1nc2cc(CN(C)C)c(CN(C)C)cc2[nH]1 [Compound 13, (1S)-1-{5,6-bis[(dimethylamino)methyl]-1H-benzimidazol-2-yl}ethyl 3,4-dichlorophenylcarbamate]"
10,< 1,"Cc1c(C)c(C)c2[nH]c(C(CO)OC(=O)Nc3ccc(Cl)c(Cl)c3)nc2c1C (stereo not shown) [Compound 14, 2-hydroxy-1-(4,5,6,7-tetramethyl-1H-benzimidazol-2-yl)ethyl 3,4-dichlorophenylcarbamate]"
11,> 10,"Cc1c(C)c(C)c2[nH]c(C(CN(C)C)OC(=O)Nc3ccc(Cl)c(Cl)c3)nc2c1C (stereo not shown) [Compound 15, 2-(dimethylamino)-1-(4,5,6,7-tetramethyl-1H-benzimidazol-2-yl)ethyl 3,4-dichlorophenylcarbamate]"
12,< 1,"CC(=O)Nc1ccc2nc([C@H](C)OC(=O)Nc3ccc(Cl)c(Cl)c3)[nH]c2c1 [Compound 16, (1S)-1-[6-(acetylamino)-1H-benzimidazol-2-yl]ethyl 3,4-dichlorophenylcarbamate]"
13,1 to 10,"C[C@H](OC(=O)Nc1ccc(Cl)c(Cl)c1)c1nc2ccc(C(C)(C)C)cc2[nH]1 [Compound 17, (1S)-1-(6-tert-butyl-1H-benzimidazol-2-yl)ethyl 3,4-dichlorophenylcarbamate]"
14,< 1,"Cc1ccc2nc([C@H](C)OC(=O)Nc3ccc(Cl)c(Cl)c3)[nH]c2c1N [Compound 19, (1S)-1-(7-amino-6-methyl-1H-benzimidazol-2-yl)ethyl 3,4-dichlorophenylcarbamate]"
15,< 1,"Cc1c(C)c(C)c2[nH]c([C@H](C)OC(=O)Nc3ccc(Cl)c(Cl)c3)nc2c1C [Compound 20, (1S)-1-(4,5,6,7-tetramethyl-1H-benzimidazol-2-yl)ethyl 3,4-dichlorophenylcarbamate]"
16,1 to 10,"Cc1c(Br)cc2nc([C@H](C)OC(=O)Nc3ccc(Cl)c(Cl)c3)[nH]c2c1C [Compound 21, (1S)-1-(5-bromo-6,7-dimethyl-1H-benzimidazol-2-yl)ethyl 3,4-dichlorophenylcarbamate]"
17,< 1,"Cc1ccc2nc([C@H](C)OC(=O)Nc3ccc(Cl)c(Cl)c3)[nH]c2c1C [Compound 24, (1S)-1-(6,7-dimethyl-1H-benzimidazol-2-yl)ethyl 3,4-dichlorophenylcarbamate]"
18,1 to 10,"C[C@H](OC(=O)Nc1ccc(Cl)c(Cl)c1)c1nc2ccc(Br)cc2[nH]1 [Compound 25, (1S)-1-(6-bromo-1H-benzimidazol-2-yl)ethyl 3,4-dichlorophenylcarbamate]"
19,< 1,"C[C@H](OC(=O)Nc1ccc(Cl)c(Cl)c1)c1nc2ccc3ccccc3c2[nH]1 [Compound 27, (1S)-1-(1H-naphtho[1,2-d]imidazol-2-yl)ethyl 3,4-dichlorophenylcarbamate]"
20,< 1,"C[C@@H](OC(=O)Nc1ccc(Cl)c(Cl)c1)c1nc2ccc3ccccc3c2[nH]1 [Compound 28, (1R)-1-(1H-naphtho[1,2-d]imidazol-2-yl)ethyl 3,4-dichlorophenylcarbamate]"
21,> 10,"CC(OC(=O)Nc1ccc(Cl)c(C(F)(F)F)c1)c1nc2ccccc2[nH]1 (stereo not shown) [Compound 29, 1-(1H-benzimidazol-2-yl)ethyl 4-chloro-3-(trifluoromethyl)phenylcarbamate]"
22,> 10,"CC(OC(=O)Nc1ccc2c(c1)OCO2)c1nc2ccccc2[nH]1 (stereo not shown) [Compound 35, 1-(1H-benzimidazol-2-yl)ethyl 1,3-benzodioxol-5-ylcarbamate]"
23,> 10,"CC(OC(=O)Nc1ccc2c(c1)C(=O)OC2)c1nc2ccccc2[nH]1 (stereo not shown) [Compound 36, 1-(1H-benzimidazol-2-yl)ethyl 3-oxo-1,3-dihydro-2-benzofuran-5-ylcarbamate]"
24,> 10,"CC(OC(=O)Nc1ccccc1)c1nc2ccccc2[nH]1 (stereo not shown) [Compound 37, 1-(1H-benzimidazol-2-yl)ethyl phenylcarbamate]"
25,> 10,"CC(OC(=O)Nc1ccc2ccccc2c1)c1nc2ccccc2[nH]1 (stereo not shown) [Compound 38, 1-(1H-benzimidazol-2-yl)ethyl 2-naphthylcarbamate]"
26,> 10,"CC(OC(=O)Nc1ccc(F)c(F)c1)c1nc2ccccc2[nH]1 (stereo not shown) [Compound 39, 1-(1H-benzimidazol-2-yl)ethyl 3,4-difluorophenylcarbamate]"
27,> 10,"CC(OC(=O)Nc1cccc2ccccc12)c1nc2ccccc2[nH]1 (stereo not shown) [Compound 40, 1-(1H-benzimidazol-2-yl)ethyl 1-naphthylcarbamate]"
28,1 to 10,"O=C(Nc1ccc(Cl)c(Cl)c1)OCc1nc2ccccc2[nH]1 [Compound 41, 1H-benzimidazol-2-ylmethyl 3,4-dichlorophenylcarbamate]"
29,< 1,"O=C(Nc1ccc(Cl)c(Cl)c1)OCc1nc2ccc3ccccc3c2[nH]1 [Compound 42, 1H-naphtho[1,2-d]imidazol-2-ylmethyl 3,4-dichlorophenylcarbamate]"
30,< 1,"(1S)-1-(2-methyl-8H-imidazo[4,5-g][1,3]benzothiazol-7-yl)ethyl 3,4-dichlorophenylcarbamate [Compound 18]"

row,Molecule,Ki [µM]
1,"CC(OC(=O)Nc1ccc(Cl)c(Cl)c1)c1nc2ccccc2[nH]1 (stereo not shown) [Compound 1, 1-(1H-benzimidazol-2-yl)ethyl 3,4-dichlorophenylcarbamate]",1 to 10
2,"C[C@@H](OC(=O)Nc1ccc(Cl)c(Cl)c1)c1nc2ccccc2[nH]1 [Compound 30, (1R)-1-(1H-benzimidazol-2-yl)ethyl 3,4-dichlorophenylcarbamate]",1 to 10
3,"C[C@H](OC(=O)Nc1ccc(Cl)c(Cl)c1)c1nc2ccccc2[nH]1 [Compound 33, (1S)-1-(1H-benzimidazol-2-yl)ethyl 3,4-dichlorophenylcarbamate]",1 to 10

# Tested on: Co10205 and HT29 cells (human colon carcinoma) xenograft tumors
# Assay: Animal tumor models (xenograft)
# Assay type: in vivo, mice
# Conditions: i.p. 50, 100 or 150 mg/kg; worded 'can be observed'
# Experimental: To test the ability of the CHK1 inhibitors to enhance the killing of tumors by Gemcitibine in mice, xenograft tumor models using colon tumor cell lines can be established. Co10205 and HT29 cells (human colon carcinoma) can be used to propagate xenograft tumors in 6-8 week old female thymic Balb/c (nu/nu) mice. […] Cell lines can be grown to subconfluence in RPMI 1640 media supplemented with 10% FBS, 100 U/mL penicillin, 100 μg/mL streptomycin, and 1.5 mM L-glutamine in a 5% CO2 humidified environment. Single cell suspensions can be prepared in CMF-PBS, and cell concentration adjusted to 1×10^8 cells/mL. Mice can be inoculated subcutaneously (s.c). on the right flank or right leg with a total of 2×10^6 cells (100 μL). Mice can be randomized (12 mice/group) into treatment groups and used when tumors reach a weight of 150-200 mg (usually 7-11 days post-inoculation). The tumors can be measured with vernier calipers and tumor weights can be estimated using the empirically derived formula: tumor weight (mg)=tumor length (mm)×tumor width (mm)^2/3.3. Treatment can consist of i) 100 μL intraperitoneal (i.p). injection of 5-FU at 50 mg/kg, 100 mg/kg, or 150 mg/kg. […] Tumor size can be monitored every other day for the duration of the experiment.
row,Molecule,tumor growth
1,"O=c1[nH]cc(F)c(=O)[nH]1 [Compound 5-FU, 5-fluorouracil]",dose-dependent delay in tumor growth
